The values that follow come from US7833685B2, “Coloring compound and yellow toner containing the coloring compound” (Canon Kabushiki Kaisha, priority 2006, dated 2010).

Data set [1] in a line: Evaluation of coloring compound for its solubility in a styrene monomer. The note with it: in a styrene monomer at 25° C. In kind it is physicochemical. On the procedure: <Evaluation of Coloring Compound for its Solubility>
A coloring compound was tested for its solubility in a styrene monomer at a temperature of 25° C. of dissolution.
The coloring compound was judged to have sufficient solubility when the percentage by which the coloring compound dissolved in the styrene monomer was 1 mass % or more.

The nature of data set [2]: Evaluation of coloring compound for lightfastness (sun tester irradiation, color difference ΔE). In kind it is physicochemical. The note with it: ΔE after sun tester irradiation, 765 w/m^2, 50° C., 20 hours, on CLC color copy paper. On the procedure: <Evaluation of Coloring Compound for Lightfastness>
A coloring compound was dissolved in a mixed liquid prepared by mixing tetrahydrofuran and cyclohexanone at a volume ratio of 1:1, whereby a 0.04-mol/l coloring compound solution was prepared. The coloring compound solution was filtrated through a filter (pore diameter: 0.2 μm). The coloring compound solution after the filtration was applied to CLC color copy paper (manufactured by Canon Inc.) by a bar coat method (Bar No. 3), and the resultant test paper was dried with air for one whole day and night. Next, the test paper was tested by being irradiated with light from a sun tester (XF-180CPS, manufactured by Shimadzu Corporation) at an illuminance of 765 w/m^2 and a temperature of 50° C. for an irradiation time of 20 hours. The test paper was analyzed with a spectrophotometer (SPECTROLINO, manufactured by Gretag Macbeth) before and after the irradiation test. The chromaticities (L*, a*, b*) of the test paper in an L*a*b* colorimetric system were measured before and after the irradiation test. A color difference (ΔE) was calculated from the following equation.
The coloring compound was evaluated for its lightfastness as described below. • A: ΔE is less than 15. • B: ΔE is 15 or more and less than 30. • C: ΔE is 30 or more.
The coloring compound was judged to have good lightfastness when ΔE was less than 30.

`CCCCn1c(O)c(N=Nc2cccc(C)c2)c(C)c(C#N)c1=O` [E7, reference compound]: the Solubility entry in data set [1] was “B (The percentage by which the coloring compound dissolves in the styrene monomer is 1 mass % or more and less than 10 mass %)”. Moreover, the Lightfastness entry in data set [2] is recorded as “C (ΔE is 30 or more)”.
On to `CCCCCCN(CCCCCC)C(=O)c1ccccc1N=Nc1c(O)[nH]c(=O)c(C#N)c1C` [D3], for which the Solubility entry in data set [1] was “A (The percentage by which the coloring compound dissolves in the styrene monomer is 10 mass % or more)”. In data set [2], the Lightfastness entry is given as “A (ΔE is less than 15)”.
On to `CCCCC(CC)CN(CC(CC)CCCC)C(=O)c1ccc(N=Nc2c(O)[nH]c(=O)c(C#N)c2C)cc1` (centres unmarked) [E10, reference compound], for which the Solubility result in data set [1] is “A (The percentage by which the coloring compound dissolves in the styrene monomer is 10 mass % or more)”. Further, the Lightfastness entry in data set [2] is “C (ΔE is 30 or more)”.
Regarding `CCCCC(CC)CNS(=O)(=O)c1ccc(N=Nc2c(C)c(C#N)c(=O)n(CCCC)c2O)cc1` (centres unmarked) [E3, reference compound], the Solubility result in data set [1] is given as “A (The percentage by which the coloring compound dissolves in the styrene monomer is 10 mass % or more)”. Also, the Lightfastness result in data set [2] is “C (ΔE is 30 or more)”.
As to `CCCCCCCCc1ccc(OC(=O)c2ccccc2N=Nc2c(O)[nH]c(=O)c(C#N)c2C)cc1` [D8], the Solubility result in data set [1] is “B (The percentage by which the coloring compound dissolves in the styrene monomer is 1 mass % or more and less than 10 mass %)”. In addition, the Lightfastness entry in data set [2] is given as “A (ΔE is less than 15)”.
`CCCCC(CC)CN(CC(CC)CCCC)C(=O)c1cccc(N=Nc2c(O)[nH]c(=O)c(C#N)c2C)c1` (centres unmarked) [E9, reference compound]: the Solubility result in data set [1] is reported as “C (The percentage by which the coloring compound dissolves in the styrene monomer is less than 1 mass %)”. Moreover, in data set [2], the Lightfastness entry is listed as “A (ΔE is less than 15)”.
`Cc1c(N=Nc2ccccc2C(=O)N(Cc2ccccc2)Cc2ccccc2)c(O)[nH]c(=O)c1C#N` [D11]: the Solubility result in data set [1] was “B (The percentage by which the coloring compound dissolves in the styrene monomer is 1 mass % or more and less than 10 mass %)”. Moreover, the Lightfastness entry in data set [2] is on record as “A (ΔE is less than 15)”.
As for `CCCCC(CC)CN(CC(CC)CCCC)C(=O)c1ccccc1/N=N/c1c(O)[nH]c(=O)c(C#N)c1C` (centres unmarked) [D1], the Solubility result in data set [1] was “A (The percentage by which the coloring compound dissolves in the styrene monomer is 10 mass % or more)”. Also, the Lightfastness entry in data set [2] is reported as “A (ΔE is less than 15)”.
As to `CCCCC(CC)CN(CC(CC)CCCC)C(=O)c1ccccc1N=Nc1c(C)cc(=O)[nH]c1O` (centres unmarked) [D7], the Solubility result in data set [1] was “B (The percentage by which the coloring compound dissolves in the styrene monomer is 1 mass % or more and less than 10 mass %)”. In data set [2], the Lightfastness entry is “B (ΔE is 15 or more and less than 30)”.
Turning to `CCCCC(CC)CN(CC(CC)CCCC)C(=O)c1ccccc1N=Nc1c(C)c(C#N)c(=O)n(CC)c1O` (centres unmarked) [E11, reference compound], the Solubility entry in data set [1] is “A (The percentage by which the coloring compound dissolves in the styrene monomer is 10 mass % or more)”. In addition, in data set [2], the Lightfastness entry is reported as “C (ΔE is 30 or more)”.
On to `CCCCc1c(N=Nc2ccccc2C(=O)N2CCC(CCC)CC2)c(O)[nH]c(=O)c1C#N` [D16], for which the Solubility result in data set [1] is “B (The percentage by which the coloring compound dissolves in the styrene monomer is 1 mass % or more and less than 10 mass %)”. The Lightfastness entry in data set [2] was “A (ΔE is less than 15)”.
Regarding `CCCCc1c(N=Nc2ccc(OC)cc2C(=O)OC(c2ccccc2)c2ccccc2)c(O)[nH]c(=O)c1C#N` [D10], the Solubility entry in data set [1] is “B (The percentage by which the coloring compound dissolves in the styrene monomer is 1 mass % or more and less than 10 mass %)”. Further, in data set [2], the Lightfastness entry was “B (ΔE is 15 or more and less than 30)”.
As to `CCCCn1c(O)c(N=Nc2ccc(C(=O)OC)cc2)c(C)c(C#N)c1=O` [E5, reference compound], the Solubility entry in data set [1] is reported as “C (The percentage by which the coloring compound dissolves in the styrene monomer is less than 1 mass %)”. For the same compound, the Lightfastness entry in data set [2] is “C (ΔE is 30 or more)”.
With `CCCCc1c(N=Nc2ccc(C)cc2C(=O)OCC(CC)CCCC)c(O)[nH]c(=O)c1C#N` (centres unmarked) [D6], the Solubility result in data set [1] is “B (The percentage by which the coloring compound dissolves in the styrene monomer is 1 mass % or more and less than 10 mass %)”. Moreover, the Lightfastness result in data set [2] was “B (ΔE is 15 or more and less than 30)”.
`CCCCn1c(O)c(N=Nc2ccccc2[N+](=O)[O-])c(C)c(C#N)c1=O` [E8, reference compound]: the Solubility result in data set [1] is given as “C (The percentage by which the coloring compound dissolves in the styrene monomer is less than 1 mass %)”. The Lightfastness entry in data set [2] is given as “C (ΔE is 30 or more)”.
`Cc1c(N=Nc2ccc(N(C)C)cc2)c(O)n(CCCl)c(=O)c1C#N` [E4, reference compound]: the Solubility entry in data set [1] is “B (The percentage by which the coloring compound dissolves in the styrene monomer is 1 mass % or more and less than 10 mass %)”. In addition, the Lightfastness result in data set [2] was “C (ΔE is 30 or more)”.
Take `CCCCCCCCCCCCN(CCCCCCCCCCCC)C(=O)c1cc(Cl)ccc1N=Nc1c(O)[nH]c(=O)c(C#N)c1C` [D5]: the Solubility entry in data set [1] was “A (The percentage by which the coloring compound dissolves in the styrene monomer is 10 mass % or more)”. Besides, the Lightfastness result in data set [2] is “B (ΔE is 15 or more and less than 30)”.
Take `CCCCn1c(O)c(N=Nc2ccc(Cl)cc2)c(C)c(C#N)c1=O` [E2, reference compound]: the Solubility result in data set [1] was “B (The percentage by which the coloring compound dissolves in the styrene monomer is 1 mass % or more and less than 10 mass %)”. In data set [2], the Lightfastness result was “C (ΔE is 30 or more)”.
Regarding `CCCCC(CC)CN(CC(CC)CCCC)C(=O)c1ccccc1N=Nc1c(O)[nH]c(=O)c(C(N)=O)c1C` (centres unmarked) [D14], in data set [1], the Solubility result is “B (The percentage by which the coloring compound dissolves in the styrene monomer is 1 mass % or more and less than 10 mass %)”. For the same compound, the Lightfastness result in data set [2] is “B (ΔE is 15 or more and less than 30)”.
In the case of `CCCCC(CC)CN(CC(CC)CCCC)C(=O)c1ccc(N=Nc2c(C)c(C#N)c(=O)n(CC)c2O)cc1` (centres unmarked) [E6, reference compound], the Solubility entry in data set [1] was “A (The percentage by which the coloring compound dissolves in the styrene monomer is 10 mass % or more)”. For the same compound, in data set [2], the Lightfastness entry is “C (ΔE is 30 or more)”.
As for `CCCCc1ccc(N=Nc2c(O)[nH]c(=O)c(C#N)c2C)cc1` [E1, reference compound], the Solubility result in data set [1] was “B (The percentage by which the coloring compound dissolves in the styrene monomer is 1 mass % or more and less than 10 mass %)”. Further, in data set [2], the Lightfastness result is “C (ΔE is 30 or more)”.
Take `CCCCCCCCCCCCN(CCCCCCCCCCCC)C(=O)c1ccccc1N=Nc1c(O)[nH]c(=O)c(C#N)c1C` [D4]: the Solubility entry in data set [1] was “A (The percentage by which the coloring compound dissolves in the styrene monomer is 10 mass % or more)”. Moreover, in data set [2], the Lightfastness result is listed as “A (ΔE is less than 15)”.
Take `CCCCc1c(N=Nc2ccccc2C(=O)NCC(CC)CCCC)c(O)[nH]c(=O)c1C#N` (centres unmarked) [D15]: the Solubility result in data set [1] is “B (The percentage by which the coloring compound dissolves in the styrene monomer is 1 mass % or more and less than 10 mass %)”. Besides, in data set [2], the Lightfastness entry is “A (ΔE is less than 15)”.
In the case of `Cc1c(N=Nc2ccccc2C(=O)N(c2ccccc2)c2ccccc2)c(O)[nH]c(=O)c1C#N` [D12], in data set [1], the Solubility result is “B (The percentage by which the coloring compound dissolves in the styrene monomer is 1 mass % or more and less than 10 mass %)”. Moreover, in data set [2], the Lightfastness result is “A (ΔE is less than 15)”.
As to `CCCCC(CC)CN(CC(CC)CCCC)C(=O)c1ccccc1N=Nc1c(O)[nH]c(=O)c(C#N)c1-c1ccccc1` (centres unmarked) [D2], the Solubility entry in data set [1] was “A (The percentage by which the coloring compound dissolves in the styrene monomer is 10 mass % or more)”. For the same compound, in data set [2], the Lightfastness result is “A (ΔE is less than 15)”.
